Source: patent US12391692B2, “Spiro ring-containing quinazoline compound” (WIGEN BIOMEDICINE TECHNOLOGY (SHANGHAI) CO., LTD., priority 2020, dated 2025)

What was measured:
[1] = system: pERK level in H358 cells; assay: pERK and ERK protein content assay in H358 cells (ELISA); type: cell-based; details: Homo sapiens, NCI-H358, pERK/ERK ratio vs DMSO group, compound 1 μM, 24 h, read-out: Inhibition rate (%)
Description: H358 cells were seeded in a 24-well plate. After one day of growth, a test compound (at a concentration of 1 μM) was added. After 24 h of action of the compound, the cells were lysed, and the cell lysate was transferred to a 96-well ELISA plate. The levels of pERK and ERK in the lysate were measured using an ELISA kit (abcam 176660). The ratio of pERK to ERK was calculated and compared with that of the DMSO group, and the percentage of inhibition of pERK activity by the compound was calculated.

[2] = system: H358 cells; assay: Antiproliferative activity against H358 cells (Cell Titer Glow, ultra-low attachment plate); type: cell-based; details: Homo sapiens, NCI-H358, 72 h, three days after addition of compound
Description: 2500 H358 cells were seeded in a 96-well ultra-low attachment plate (corning, 7007). After one day of growth, a serially diluted compound (a maximum concentration of 5 μM, 5-fold dilution, a total of five doses) was added. Three days after the addition of the compound, Cell Titer Glow (Promega, G9681) was added to evaluate pellet growth, and the IC50 value was calculated.

| SMILES | inhibition at 1 µM [1] [%] | IC50 [2] [nM] |
| --- | --- | --- |
| C=CC(=O)N1CC2(CCN(c3nc(N4CC(CN(C)C)C4)nc4c(OCC(F)(F)F)c(-c5c(C)ccc6[nH]ncc56)c(C5CC5)cc34)CC2)C1 [Compound 1, 1-(7-(6-cyclopropyl-2-(3-((dimethylamino)methyl)azetidin-1-yl)-7-(5-methyl-1H-indazol-4-yl)-8-(2,2,2-trifluoroethoxy)quinazolin-4-yl)-2,7-diazaspiro[3.5]non-2-yl)prop-2-en-1-one] | > 90 | < 300 |
| C=CC(=O)N1CC2(CCN(c3nc(N4CC(O)C4)nc4c(OCC(F)(F)F)c(-c5c(C)ccc6[nH]ncc56)c(C5CC5)cc34)CC2)C1 [Compound 2] | > 90 | < 300 |
| C=CC(=O)N1CC2(CCN(c3nc(N4CC(CO)C4)nc4c(OCC(F)(F)F)c(-c5c(C)ccc6[nH]ncc56)c(C5CC5)cc34)CC2)C1 [Compound 3] | 50 to 90 | 300 to 1000 |
| C=CC(=O)N1CC2(CCN(c3nc(N4CC(CN(C)CCO)C4)nc4c(OCC(F)(F)F)c(-c5c(C)ccc6[nH]ncc56)c(C5CC5)cc34)CC2)C1 [Compound 4] | > 90 | < 300 |
| C=CC(=O)N1CC2(CCN(c3nc(N4CC(CN(C)CCOC)C4)nc4c(OCC(F)(F)F)c(-c5c(C)ccc6[nH]ncc56)c(C5CC5)cc34)CC2)C1 [Compound 5] | > 90 | < 300 |
| C=CC(=O)N1CC2(CCN(c3nc(N4CC(CN5CCCC5)C4)nc4c(OCC(F)(F)F)c(-c5c(C)ccc6[nH]ncc56)c(C5CC5)cc34)CC2)C1 [Compound 7] | > 90 | < 300 |
| C=CC(=O)N1CC2(CCN(c3nc(N4CC(CN5CCOCC5)C4)nc4c(OCC(F)(F)F)c(-c5c(C)ccc6[nH]ncc56)c(C5CC5)cc34)CC2)C1 [Compound 8] | 50 to 90 | 300 to 1000 |
| C=CC(=O)N1CC2(CCN(c3nc(N4CC(COC)C4)nc4c(OCC(F)(F)F)c(-c5c(C)ccc6[nH]ncc56)c(C5CC5)cc34)CC2)C1 [Compound 9] | > 90 | < 300 |
| C=CC(=O)N1CC2(CCN(c3nc(N4CC(COC5CC5)C4)nc4c(OCC(F)(F)F)c(-c5c(C)ccc6[nH]ncc56)c(C5CC5)cc34)CC2)C1 [Compound 10] | > 90 | < 300 |
| C=CC(=O)N1CC2(CCN(c3nc(N4CC(COC5CN(C)C5)C4)nc4c(OCC(F)(F)F)c(-c5c(C)ccc6[nH]ncc56)c(C5CC5)cc34)CC2)C1 [Compound 11] | > 90 | < 300 |
| C=CC(=O)N1CC2(CCN(c3nc(N4CC(OC5CC5)C4)nc4c(OCC(F)(F)F)c(-c5c(C)ccc6[nH]ncc56)c(C5CC5)cc34)CC2)C1 [Compound 12] | > 90 | < 300 |
| C=CC(=O)N1CC2(CCN(c3nc(N4CC(OC5CCC5)C4)nc4c(OCC(F)(F)F)c(-c5c(C)ccc6[nH]ncc56)c(C5CC5)cc34)CC2)C1 [Compound 13] | > 90 | < 300 |
| C=CC(=O)N1CC2(CCN(c3nc(N4CC(OC5CCN(C)CC5)C4)nc4c(OCC(F)(F)F)c(-c5c(C)ccc6[nH]ncc56)c(C5CC5)cc34)CC2)C1 [Compound 15] | > 90 | < 300 |
| C=CC(=O)N1CC2(CCN(c3nc(N4CCC(OC5CN(C)C5)CC4)nc4c(OCC(F)(F)F)c(-c5c(C)ccc6[nH]ncc56)c(C5CC5)cc34)CC2)C1 [Compound 16] | > 90 | < 300 |
| C=CC(=O)N1CC2(CCN(c3nc(N4CC(OCC5CC5)C4)nc4c(OCC(F)(F)F)c(-c5c(C)ccc6[nH]ncc56)c(C5CC5)cc34)CC2)C1 [Compound 17] | > 90 | < 300 |
| C=CC(=O)N1CC2(CCN(c3nc(N4CC(OCC5COC5)C4)nc4c(OCC(F)(F)F)c(-c5c(C)ccc6[nH]ncc56)c(C5CC5)cc34)CC2)C1 [Compound 18] | > 90 | < 300 |
| C=CC(=O)N1CC2(CCN(c3nc(N4CC(OCC5CN(C)C5)C4)nc4c(OCC(F)(F)F)c(-c5c(C)ccc6[nH]ncc56)c(C5CC5)cc34)CC2)C1 [Compound 19] | > 90 | < 300 |
| C=CC(=O)N1CC2(CCN(c3nc(N4CC(N(C)CC#N)C4)nc4c(OCC(F)(F)F)c(-c5c(C)ccc6[nH]ncc56)c(C5CC5)cc34)CC2)C1 [Compound 20] | 50 to 90 | 300 to 1000 |

| SMILES | inhibition at 1 µM [1] [%] | IC50 [2] [nM] |
| --- | --- | --- |
| C=CC(=O)N1CC2(CCN(c3nc(N4CC(N(C)CCO)C4)nc4c(OCC(F)(F)F)c(-c5c(C)ccc6[nH]ncc56)c(C5CC5)cc34)CC2)C1 [Compound 21] | > 90 | < 300 |
| C=CC(=O)N1CC2(CCN(c3nc(N4CC(N(CC)CCO)C4)nc4c(OCC(F)(F)F)c(-c5c(C)ccc6[nH]ncc56)c(C5CC5)cc34)CC2)C1 [Compound 22] | > 90 | < 300 |
| C=CC(=O)N1CC2(CCN(c3nc(N4CC(N(C)CCCO)C4)nc4c(OCC(F)(F)F)c(-c5c(C)ccc6[nH]ncc56)c(C5CC5)cc34)CC2)C1 [Compound 23] | > 90 | < 300 |
| C=CC(=O)N1CC2(CCN(c3nc(N4CC(N(CC)CCCO)C4)nc4c(OCC(F)(F)F)c(-c5c(C)ccc6[nH]ncc56)c(C5CC5)cc34)CC2)C1 [Compound 24] | > 90 | < 300 |
| C=CC(=O)N1CC2(CCN(c3nc(N4CC(N5CCSCC5)C4)nc4c(OCC(F)(F)F)c(-c5c(C)ccc6[nH]ncc56)c(C5CC5)cc34)CC2)C1 [Compound 25] | > 90 | 300 to 1000 |
| C=CC(=O)N1CC2(CCN(c3nc(N4CC(N5CC[S+]([O-])CC5)C4)nc4c(OCC(F)(F)F)c(-c5c(C)ccc6[nH]ncc56)c(C5CC5)cc34)CC2)C1 [Compound 26] | 50 to 90 | 300 to 1000 |
| C=CC(=O)N1CC2(CCN(c3nc(N4CC(N5CCS(=O)(=O)CC5)C4)nc4c(OCC(F)(F)F)c(-c5c(C)ccc6[nH]ncc56)c(C5CC5)cc34)CC2)C1 [Compound 27] | 50 to 90 | 300 to 1000 |
| C=CC(=O)N1CC2(CCN(c3nc(N4CC(N5CC6(CCC6)C5)C4)nc4c(OCC(F)(F)F)c(-c5c(C)ccc6[nH]ncc56)c(C5CC5)cc34)CC2)C1 [Compound 29] | > 90 | < 300 |
| C=CC(=O)N1CC2(CCN(c3nc(N4CC(N5CC6(COC6)C5)C4)nc4c(OCC(F)(F)F)c(-c5c(C)ccc6[nH]ncc56)c(C5CC5)cc34)CC2)C1 [Compound 30] | > 90 | < 300 |
| C=CC(=O)N1CC2(CCN(c3nc(N4CC(N5CC6(CSC6)C5)C4)nc4c(OCC(F)(F)F)c(-c5c(C)ccc6[nH]ncc56)c(C5CC5)cc34)CC2)C1 [Compound 31] | > 90 | < 300 |
| C=CC(=O)N1CC2(CCN(c3nc(N4CC(N5CC6(CN(C)C6)C5)C4)nc4c(OCC(F)(F)F)c(-c5c(C)ccc6[nH]ncc56)c(C5CC5)cc34)CC2)C1 [Compound 32] | > 90 | < 300 |
| C=CC(=O)N1CC2(CCN(c3nc(N4CC(N5CC6(CCOCC6)C5)C4)nc4c(OCC(F)(F)F)c(-c5c(C)ccc6[nH]ncc56)c(C5CC5)cc34)CC2)C1 [Compound 33] | 50 to 90 | 300 to 1000 |
| C=CC(=O)N1CC2(CCN(c3nc(N4CC(N5CCC56CC6)C4)nc4c(OCC(F)(F)F)c(-c5c(C)ccc6[nH]ncc56)c(C5CC5)cc34)CC2)C1 [Compound 34] | > 90 | < 300 |
| C=CC(=O)N1CC2(CCN(c3nc(N4CC(N5CCC6(CC6)C5)C4)nc4c(OCC(F)(F)F)c(-c5c(C)ccc6[nH]ncc56)c(C5CC5)cc34)CC2)C1 [Compound 35] | > 90 | < 300 |
| C=CC(=O)N1CC2(CCN(c3nc(N4CC(N5CCC6(CC5)CC6)C4)nc4c(OCC(F)(F)F)c(-c5c(C)ccc6[nH]ncc56)c(C5CC5)cc34)CC2)C1 [Compound 36] | 50 to 90 | 300 to 1000 |
| C=CC(=O)N1CC2(CCN(c3nc(N4CCC(N5CC6(CC6)C5)C4)nc4c(OCC(F)(F)F)c(-c5c(C)ccc6[nH]ncc56)c(C5CC5)cc34)CC2)C1 (stereo not drawn) [Compound 37] | > 90 | < 300 |
| C=CC(=O)N1CC2(CCN(c3nc(N4CCC(N5CC6(CC6)C5)CC4)nc4c(OCC(F)(F)F)c(-c5c(C)ccc6[nH]ncc56)c(C5CC5)cc34)CC2)C1 [Compound 38] | > 90 | 300 to 1000 |
| C=CC(=O)N1CC2(CCN(c3nc(N4CC(n5cccc5)C4)nc4c(OCC(F)(F)F)c(-c5c(C)ccc6[nH]ncc56)c(C5CC5)cc34)CC2)C1 [Compound 39] | 50 to 90 | 300 to 1000 |
